Data set [1] relates to human embryonic lung (HEL) fibroblast cells. To be noted: mock-infected HEL cells; microscopically visible alterations in cell morphology.
The nature of another data set: in vitro. The following applies: human.
The test system of another data set is HCoV-229E. The data set can be described thus: Cytopathic effect (CPE) reduction assay with HCoV-229E in HEL cells. The data set is classed as cell-based, human coronavirus 229E. The following applies: for EC50: Human coronavirus 229E, 120 h, HCoV-229E-infected HEL cells, five days at 35 °C; for Selectivity Index Microscopy: ratio of MCC to EC50-microscopy.
[2] abbreviates: protection against virus-induced CPE by MTS cell viability assay, read-out: Antiviral EC50 MTS.
[3] abbreviates: protection against virus-induced CPE by microscopic scoring, read-out: Antiviral EC50 Microscopy.
[4] abbreviates: only values of 10 or higher shown.

Like-named read-outs stand apart in the source and are kept apart here.

With `COC(=O)CNC(=O)C1(N(Cc2ccccc2)C(=O)[C@H](CC(=O)OC)NC(=O)OC(C)(C)C)CCN(Cc2ccccc2)CC1` [Compound 17], the “Cytotoxicity MCC (minimal cytotoxic concentration)” value (from here on “Cytotoxicity MCC”) in data set [1] is given as >100 µM. The CC50 in “in vitro” was > 100 µM. The EC50 in the data set on HCoV-229E (setting [2]) worked out at 75 ± 8 µM; in the data set on HCoV-229E (setting [3]) it was 68 ± 3 µM.
As for `COC(=O)C[C@H](NC(=O)OCc1ccccc1)C(=O)N(Cc1ccccc1)C1(C(=O)NCc2ccccc2)CCN(CCc2ccc([N+](=O)[O-])cc2)CC1` [Compound 55, Methyl(S)-4-(benzyl(4-benzylcarbamoyl-1-(4-nitrophenethyl)piperidin-4-yl)amino)-3-benzyloxycarbonylamino-4-oxobutanoate], in data set [1], the “Cytotoxicity MCC” value was determined as 60 µM. Besides, the CC50 in “in vitro” is > 100 µM. The EC50 with HCoV-229E (setting [2]) turned out to be 7.7 ± 0.9 µM; with HCoV-229E (setting [3]), 10 µM. The “Selectivity Index MTS” value in the data set on HCoV-229E (ratio of CC50 to EC50-MTS, only values of 10 or higher shown) is listed as >13.
With `CCC(C)N(C(=O)[C@H](CC(=O)OC)NC(=O)OCc1ccccc1)C1(C(=O)NCc2ccccc2)CCN(Cc2ccccc2)CC1` (stereo partly shown) [Compound 36], in data set [1], the “Cytotoxicity MCC” value is reported as 40 µM. Moreover, the CC50 in “in vitro” is 27 ± 1 µM. In addition, the figures for the EC50 in the data set with HCoV-229E (setting [2]) and in the data set with HCoV-229E (setting [3]) were 6.2 ± 0.8 µM and 9.2 ± 0.5 µM, respectively.
For the molecule `COC(=O)CC[C@H](NC(=O)OC(C)(C)C)C(=O)N(Cc1ccc(F)cc1)C1(C(=O)NCc2ccccc2)CCN(Cc2ccccc2)CC1` [Compound 40], the “Cytotoxicity MCC” value in data set [1] worked out at 100 µM. This molecule yielded a CC50 in “in vitro” of 50 ± 3 µM. For the same molecule, the figures for the EC50 in the data set on HCoV-229E (setting [2]) and in the data set with HCoV-229E (setting [3]) were 11 ± 4 µM and 4.8 ± 1.7 µM, respectively. Further, the “Selectivity Index Microscopy” value in the data set on HCoV-229E (setting [4]) turned out to be 21.
On to `COC(=O)C[C@H](NC(=O)OC(C)(C)C)C(=O)N(Cc1ccc(F)cc1)C1(C(=O)NCc2ccccc2)CCN(C)CC1` [Compound 5], for which the “Cytotoxicity MCC” value in data set [1] was >100 µM. In addition, the CC50 in “in vitro” was determined as 92 ± 4 µM. Also, the half-maximal effective concentration (EC50) in the data set on HCoV-229E (setting [2]) was 22 ± 7 µM; in the data set with HCoV-229E (setting [3]) it was 22 ± 9 µM.
In the case of `CC(C)(C)OC(=O)N[C@@H](CC(=O)O)C(=O)N(Cc1ccc(F)cc1)C1(C(=O)NCc2ccccc2)CCN(Cc2ccccc2)CC1` [Compound 43], the “Cytotoxicity MCC” value in data set [1] is given as >100 µM. Further, in “in vitro”, the CC50 is > 100 µM. The half-maximal effective concentration (EC50) with HCoV-229E (setting [2]) and in the data set with HCoV-229E (setting [3]) was > 100 µM throughout.
As to `COC(=O)C[C@H](NC(=O)OC(C)(C)C)C(=O)N(Cc1cccc(F)c1)C1(C(=O)NCc2ccccc2)CCN(Cc2ccccc2)CC1` [Compound 27], the “Cytotoxicity MCC” value in data set [1] is on record as 100 µM. This molecule came in with a CC50 in the data set “in vitro” of 46 ± 4 µM. Moreover, the concentration for a half-maximal effect (EC50) in the data set with HCoV-229E (setting [2]) amounted to 14 ± 1 µM; in the data set with HCoV-229E (setting [3]), 10 ± 3 µM. Moreover, in the data set on HCoV-229E (setting [4]), the “Selectivity Index Microscopy” value is listed as 10.
Turning to `COc1ccc(CN2CCC(C(=O)NCc3ccccc3)(N(Cc3ccccc3)C(=O)C(Cc3ccccc3)NC(=O)OC(C)(C)C)CC2)cc1` (stereo not shown) [Compound 62, Tert-butyl(1-(benzyl(4-benzylcarbamoyl-1-(4-methoxybenzyl)piperidin-4-yl)amino)-1-oxo-3-phenylpropan-2-yl)carbamate], in data set [1], the “Cytotoxicity MCC” value is reported as 40 µM. Moreover, in the data set “in vitro”, the CC50 came to 28 µM. In addition, the EC50 in the data set with HCoV-229E (setting [2]) turned out to be 4.3 ± 0.4 µM; with HCoV-229E (setting [3]) it was 5.9 ± 1.8 µM.
For `CC(C)(C)OC(=O)N[C@@H](Cc1c[nH]c2ccccc12)C(=O)N(Cc1ccccc1)C1(C(=O)NCc2ccccc2)CCN(Cc2ccccc2)CC1` [Compound 47], in that order: >100 µM, > 100 µM, 49 ± 12 µM and 57 ± 17 µM.
For `COC(=O)C[C@H](N)C(=O)N(Cc1ccc(F)cc1)C1(C(=O)NCc2ccccc2)CCN(Cc2ccccc2)CC1` [Compound 31], in that order: 11 µM, 4.9 ± 1.5 µM, 2.8 ± 0.5 µM and 3.3 ± 0.2 µM.
Turning to `COC(=O)C[C@H](NC(=O)OC(C)(C)C)C(=O)N(Cc1ccc(F)cc1)C1(C(=O)NCc2ccccc2)CCN(Cc2cc(F)cc(F)c2)CC1` [Compound 10], the “Cytotoxicity MCC” value in data set [1] worked out at 70 µM. In the data set “in vitro”, this molecule had a CC50 of 10 ± 2 µM. Further, the results for the concentration giving a half-maximal response (EC50) in the data set on HCoV-229E (setting [2]) and in the data set on HCoV-229E (setting [3]) were > 100 µM and 15 ± 1 µM, respectively.
Turning to `COC(=O)C[C@H](NC(=O)OCc1ccccc1)C(=O)N(Cc1ccccc1)C1(C(=O)NCc2ccccc2)CCN(CCc2ccccc2)CC1` [Compound 53, Methyl(S)-4-(benzyl(4-benzylcarbamoyl-1-phenethylpiperidin-4-yl)amino)-3-benzyloxycarbonylamino-4-oxobutanoate], the “Cytotoxicity MCC” value in data set [1] is 40 µM. Moreover, the CC50 in the data set “in vitro” came to 24 ± 2 µM. The results for the EC50 with HCoV-229E (setting [2]) and in the data set on HCoV-229E (setting [3]) were 5.8 ± 1.9 µM and 6.1 ± 2 µM, respectively.
Turning to `COC(=O)C[C@H](NC(=O)OC(C)(C)C)C(=O)N(Cc1ccc(F)cc1)C(C)(C)C(=O)NCc1ccccc1` [Compound 3], the “Cytotoxicity MCC” value in data set [1] is recorded as >100 µM. Further, the CC50 in “in vitro” was > 100 µM. The EC50 in the data set with HCoV-229E (setting [2]) and with HCoV-229E (setting [3]) was > 100 µM throughout.
Take `COC(=O)C[C@H](NC(=O)OC(C)(C)C)C(=O)N(Cc1ccc(F)cc1)C1(C(=O)NCc2ccccc2)CCN(Cc2cccc(F)c2)CC1` [Compound 9]: in data set [1], the “Cytotoxicity MCC” value was >100 µM. Also, the CC50 in “in vitro” was > 100 µM. In addition, the EC50 in the data set on HCoV-229E (setting [2]) and in the data set on HCoV-229E (setting [3]) was > 100 µM in each case.
In the case of `COC(=O)C[C@H](NC(=O)OC(C)(C)C)C(=O)N(Cc1ccc(F)cc1)C1(C(=O)NC2CCCCC2)CCN(Cc2ccccc2)CC1` [Compound 13], the “Cytotoxicity MCC” value in data set [1] was >100 µM. Also, in “in vitro”, the CC50 was > 100 µM. The EC50 with HCoV-229E (setting [2]) and in the data set with HCoV-229E (setting [3]) was > 100 µM throughout.
With `COC(=O)C[C@H](NC(=O)OC(C)(C)C)C(=O)N(Cc1ccc(C)cc1)C1(C(=O)NCc2ccccc2)CCN(Cc2ccccc2)CC1` [Compound 22], the “Cytotoxicity MCC” value in data set [1] came out at 75 µM. For the same molecule, in “in vitro”, the CC50 turned out to be 31 ± 10 µM. The concentration giving a half-maximal response (EC50) in the data set with HCoV-229E (setting [2]) stood at 4.3 ± 0.6 µM; with HCoV-229E (setting [3]), 3.1 µM. Also, the “Selectivity Index Microscopy” value with HCoV-229E (setting [4]) is reported as 24.
`C[C@H](NC(=O)OC(C)(C)C)C(=O)N(Cc1ccc(F)cc1)C1(C(=O)NCc2ccccc2)CCN(Cc2ccccc2)CC1` [Compound 38]: the “Cytotoxicity MCC” value in data set [1] is listed as 100 µM. The same molecule yielded a CC50 in the data set “in vitro” of 48 ± 2 µM. Besides, the half-maximal effective concentration (EC50) with HCoV-229E (setting [2]) worked out at 15 ± 3 µM; in the data set on HCoV-229E (setting [3]) it was 12 ± 1 µM.
Turning to `COC(=O)C[C@H](NC(=O)OC(C)(C)C)C(=O)N(Cc1ccc(F)cc1)C1(C(=O)NCS(=O)(=O)c2ccc(C)cc2)CCN(Cc2ccccc2)CC1` [Compound 14], the “Cytotoxicity MCC” value in data set [1] was 100 µM. The same molecule gave a CC50 in “in vitro” of 78 ± 11 µM. Also, the half-maximal effective concentration (EC50) with HCoV-229E (setting [2]) was 30 ± 6 µM; in the data set on HCoV-229E (setting [3]), 57 ± 18 µM.
Turning to `COC(=O)C[C@H](NC(=O)OC(C)(C)C)C(=O)N(Cc1ccc(F)cc1)C1(C(=O)NC(C)(C)C)CCN(Cc2ccccc2)CC1` [Compound 12], the “Cytotoxicity MCC” value in data set [1] is recorded as ≥100 µM. The molecule also registered a CC50 in the data set “in vitro” of 77 µM. Also, the EC50 in the data set on HCoV-229E (setting [2]) and with HCoV-229E (setting [3]) was 11 µM each time.
With `COC(=O)C[C@H](NC(=O)OCc1ccccc1)C(=O)N(Cc1ccccc1)C1(C(=O)NCc2ccccc2)CCN(CCc2ccc(F)cc2)CC1` [Compound 56, Methyl(S)-4-(benzyl(4-benzylcarbamoyl-1-(4-fluorophenethyl)piperidin-4-yl)amino)-3-benzyloxycarbonylamino-4-oxobutanoate], the “Cytotoxicity MCC” value in data set [1] was determined as 32 µM. Also, the CC50 in the data set “in vitro” is 23 ± 3 µM. Moreover, the EC50 in the data set with HCoV-229E (setting [2]) was determined as 6 ± 1.9 µM; with HCoV-229E (setting [3]) it was 7.6 ± 1.8 µM.
Regarding `COC(=O)C[C@H](NC(=O)OC(C)(C)C)C(=O)N(Cc1ccc(F)cc1)C1(C(=O)NCc2ccccc2)CCNCC1` [Compound 4], in data set [1], the “Cytotoxicity MCC” value is 100 µM. In “in vitro”, this molecule yielded a CC50 of 66 ± 7 µM. The half-maximal effective concentration (EC50) amounted to 78 ± 14 µM in the data set with HCoV-229E (setting [2]) and 50 ± 18 µM in the data set with HCoV-229E (setting [3]).
